In general, half-life refers to the time in which the quantity being followed falls by half. Lower therefore signals fast loss.

The structures appear in SMILES notation.

Experimental findings from patent publication US20250129102A1, “CRYSTAL FORM OF PYRIMIDINE HETEROCYCLIC COMPOUND AND PREPARATION METHOD THEREFOR” (D3 Bio (Wuxi) Co., Ltd., priority 2021, published 2025) are described below.

Holding throughout (assay type): in vitro ADME
The nature of series [1]: Protein binding rate in plasma by equilibrium dialysis, CD-1 mice. The method, then:
Protein binding rate of the assay compound in plasma of CD-1 mice, SD rats, beagle dogs, cynomolgus monkeys and human was determined by equilibrium dialysis.
Plasma samples with a compound concentration of 2 μM were prepared using plasma of the above five species, placed in a 96-well equilibrium dialysis device, and dialyzed with phosphate buffer solution at 37±1° C. for 4 hours. Warfarin was used as the control compound in this assay. The concentrations of the assay compound in plasma and dialysis buffer were determined by LC-MS/MS method.
For orientation: In equilibrium dialysis free small molecules cross a membrane that holds back macromolecules.

A short description of series [2]: In vitro stability in liver microsomes, CD-1 mice. The following applies: mouse, CD-1 mice liver microsomes, 0.5 mg/mL. The method, then:
Metabolic stabilities of the assay compound in liver microsomes of CD-1 mice, SD rats, beagle dogs, cynomolgus monkeys, and human were assayed, respectively.
Two 96-well incubation plates were prepared and named T60 incubation plate and NCF60 incubation plate, respectively. 445 μL of microsomal working solutions (liver microsomal protein concentration of 0.56 mg/mL) were added to the T60 incubation plate and the NCF60 incubation plate, respectively, and then the above incubation plates were pre-incubated in a 37° C. water bath for about 10 minutes.
After the pre-incubation, 5 μL of working solutions of the assay sample or the control compound were added to the T60 incubation plate and the NCF60 incubation plate, respectively, and the mixture was mixed well. 50 μL of potassium phosphate buffer was added to each well of the NCF60 incubation plate to initiate the reaction. 180 μL of stop solution (200 ng/mL tolbutamide and 200 ng/mL labetalol in acetonitrile) and 6 uL of NADPH regeneration system working solution were added to the T0 stop plate, and 54 μL of sample was transferred from T60 incubation plate to T0 stop plate (generation of T0 sample). The reaction was initiated by adding 44 μL of NADPH regeneration system working solution to each well of the T60 incubation plate. Only 54 μL of microsome working solution, 6 uL of NADPH regeneration system working solution and 180 μL of stop solution were added to the Blank plate. Therefore, in samples of the assay compound or the control compound, the final reaction concentration of compound, testosterone, diclofenac and propafenone was 1 μM, the concentration of liver microsomes was 0.5 mg/mL, and the final reaction concentrations of DMSO and acetonitrile in the reaction system were 0.01% (v/v) and 0.99% (v/v), respectively. […] All samples were injected and analyzed by liquid chromatography-tandem mass spectrometry.
A general note: Microsomes from liver hold many membrane-bound enzymes, among them those of drug oxidation.

Series [3] can be described thus: Metabolic stability in hepatocytes, cynomolgus monkeys. The following applies: cynomolgus monkey, cryopreserved hepatocytes. The procedure: Metabolic stabilities of assay compound in hepatocytes of CD-1 mice, SD rats, beagle dogs, cynomolgus monkeys, and human were assayed, respectively.
Several 96-well sample precipitation plates were prepared and named T0, T15, T30, T60, T90, T120, T0-MC, T120-MC and blank substrates, respectively. The recovery medium and incubation medium were taken out in advance and placed in a 37° C. water bath for pre-heating. Cryopreserved hepatocytes were removed from the liquid nitrogen tank and immediately immersed in a 37° C. water bath (approximately 90 seconds). After the cryopreserved hepatocytes had thawed and loosened, they were poured into a centrifuge tube containing 40 mL of recovery medium, and the tube was gently inverted to allow the cells to be resuspended in the recovery medium. The cells were centrifuged at 100×g at room temperature for 5 min, and the supernatant was removed. The hepatocytes were resuspended in an appropriate volume of incubation medium, and the cell viability was calculated by Trypan Blue staining method. 198 μL of hepatocyte suspension (0.51×10^6 cells/mL) was added to the preheated incubation plate. For the culture medium control group, 198 μL of hepatocyte-free incubation medium was added to T0-MC and T120-MC incubation plate. All incubation plates were pre-incubated in a 37° C. incubator for 10 minutes. Then 2 μL of working solutions of the assay sample and the control compound were added, respectively, and the mixture was mixed well. The incubation plate was immediately put into the shaker in the incubator, and the reaction was initiated while starting the timer. For each time point of each compound, 2 duplicate samples were prepared. The incubation conditions were 37° C., saturated humidity, and 5% CO2. […] All samples were mixed well and analyzed by LC/MS/MS.

Series [4] is described as follows: Stability in plasma, CD-1 mice. The following applies: CD-1 mice plasma, 2 μM, 37° C. The procedure:
Stabilities of the assay compound in plasma of CD-1 mice and human were assayed, respectively. Cryopreserved plasma was thawed for 10 to 20 min. After the plasma was completely thawed, it was placed in a centrifuge and centrifuged at 3220×g for 5 min to remove any suspended matter and sediment in the plasma. 96-well incubation plates were prepared and named T0, T10, T30, T60, T120, respectively. 98 μL of blank plasmas of mouse, rat, canine, monkey and human were added to the corresponding incubation plates, then 2 μL of working solutions of the compound or the control compound were added to the corresponding plates in duplicate. All samples were incubated in a 37° C. water bath. The final incubation concentrations of the compound and the control compounds bisacodyl, enalapril maleate, procaine and probanthine were 2 μM, and the final organic phase content was 2.0%. At the end of incubation for each time point, the corresponding incubation plate was removed and 400 μL of a solution of 200 ng/mL of tolbutamide and labetalol in acetonitrile was added to each corresponding sample well to precipitate the protein. All sample plates were sealed and shaken well, and then centrifuged at 3220×g for 20 minutes. 50 μL of supernatant was taken out and diluted in 100 μL of ultrapure water. All samples were mixed well and then analyzed by LC/MS/MS.

With `C=C(F)C(=O)N1CCN(c2nc(OC[C@@]34CCCN3C[C@H](F)C4)nc3c2CO[C@H](c2c(F)c(N)cc(C)c2C(F)(F)F)C3)C[C@@H]1CC#N` [Compound of formula (I)], in series [1] (CD-1, plasma, value used in the CD mouse PK table, read-out: Plasma protein unbound rate PPB (Unbound %)), the fraction unbound at 4 h, 2 μM stood at 0.12. In addition, the “Protein unbound rate (%)” value in series [1] (CD-1 mice plasma, 2 μM, equilibrium dialysis 4 hours) was determined as 1.5%. In addition, the CLint scaled at 1 μM in series [2] stood at 1130 mL/min/kg; in series [3] (read-out: CLint(liver)), 185 mL/min/kg. Further, the half-life at 1 μM stood at 4.9 min in series [2] and 27 min in series [3]. In series [2] (read-out: CLint(hep)), the microsomal CLint at 1 μM was 285 µL/min/mg. In series [3] (read-out: CLint(hep)), the hepatocyte CLint at 1 μM is 51.3 µL/min/1e6 cells. The “Detection of assay compound content within 120 min” value in series [4] is on record as 94%.
